Measured values as given in patent US9399631B2, “Polyphenol proteasome inhibitors, synthesis, and methods of use” (UNIVERSITY OF SOUTH FLORIDA, priority 2003, dated 2016).
Where a SMILES comes first, the peptide text is derived from it. [ ]: non-standard residue; d: D form. Nle = CCCC[C@H](N)C(=O)O

How the values were obtained:
purified 20S proteasome [1] = molecular target: purified 20S proteasome (UniProt Q9P992); experiment: Inhibition of chymotrypsin-like activity of purified 20S proteasome (source not stated); type: biochemical; set-up: other: 1 μM; other: 10 μM
Chain of purified 20S proteasome (UniProt Q9P992) (Q9P992 whole entry): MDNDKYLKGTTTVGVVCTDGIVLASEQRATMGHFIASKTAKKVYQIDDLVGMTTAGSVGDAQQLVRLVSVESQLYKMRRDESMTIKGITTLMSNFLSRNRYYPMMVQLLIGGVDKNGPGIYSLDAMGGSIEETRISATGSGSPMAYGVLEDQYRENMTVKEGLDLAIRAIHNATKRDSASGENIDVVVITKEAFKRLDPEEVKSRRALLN
Procedure: (§1) Inhibition of purified 20S proteasome activity by natural or synthetic GTPs. Purified prokaryotic (0.5 μg) or eukaryotic (0.02 μg) 20S proteasome was incubated with 20 μM fluorogenic peptide substrate, Suc-Leu-Leu-Val-Tyr-AMC for 30 min at 37° C. in […] of assay buffer (50 mM Tris-HCl, pH 7.5), with or without a natural or synthetic tea polyphenol. After incubation, production of hydrolyzed 7-amido-4-methyl-coumarin (AMC) groups was measured using a multi-well plate VERSAFLUOR Fluorometer with an excitation filter of 380 nm and an emission filter of 460 nm (BIO-RAD), and a multi-well plate reader Wallac 1420 VICTORTM^2 with an excitation filter of 355 nm and an emission filter of 460 nm (EG&G WALLAC).

purified 20S proteasome [2] = molecular target: T1, purified 20S proteasome (UniProt G1T4Q9); experiment: as above; type: biochemical; settings: chymotrypsin-like activity of purified 20S proteasome
T1 construct: IC50; other: chymotrypsin-like activity of purified 20S proteasome
Procedure: as §1

LNCaP cells [3] = experiment: Soft agar colony formation assay; type: cell-based, human; settings: 50 μM, 14 day-incubation
Procedure: Soft Agar Assay. The soft agar assay was performed according to Smith et al. (Smith, D. M. et al. Mol Med, 2002, 8:382-392) with a few modifications. In brief, in a six-well plate, a bottom feeder layer (0.6% agar) was prepared with DMEM media containing 10% fetal bovine serum, 100 units/ml penicillin, and 100 μg/ml streptomycin. A top layer (0.3% agar) was prepared with DMEM and the same media as described above but containing 2×10^4 prostate cancer LNCaP cells and indicated analogs or DMSO as a control. Plates were incubated at 37° C. in 5% CO2 in a humidified incubator for two weeks. MTT (1 mg/ml) was added to each well and incubated overnight to allow complete formation of purple formazan crystals. The plates were then scanned and photographed, and the number of colonies was quantified by QUANTITY ONE v.4.0.3 software (Bio-Rad, Hercules, Calif.).
The […] effects of several GTP analogs were investigated with a soft agar assay that measures the transforming activity of human tumor cells. LNCaP cells were plated in soft agar (see Materials and Methods) along with 50 μM of GTP-1, -2, -3, (−)-EGCG (as a positive control; Smith, D. M. et al. Mol Med, 2002, 8:382-392, 2002), or the solvent (as a negative control), followed by a 14 day-incubation to allow for colony formation (FIGS. 12A and 12B).
In a second experiment, LNCaP cells were plated in soft agar along with 10 μM of each indicated GTP or solvent (H2O), followed by a 14 day-incubation to allow for colony formation (FIG. 21A). […] Colonies were quantified with an automated counter and presented as mean values from triplicate independent experiments. Error bars denote standard deviations.

LNCaP cells [4] = experiment: Western blot of proteasome target proteins in LNCaP cells; type: cell-based, human; settings: 50 μM, 3 to 12 hours
Procedure: (§2) Cell Culture, Cell Extract Preparation, and Western Blot Assay. Human leukemia Jurkat T and prostate cancer LNCaP cells were cultured in RPMI 1640 medium supplemented with 10% fetal calf serum, 100 units/ml of penicillin, and 100 μg/ml streptomycin. Human immortalized, non-transformed NK cells (YT cell line) (38) were cultured in RPMI 1640 supplemented with 1 mM MEM sodium pyruvate solution, 0.1 mM MEM non-essential amino acids solution, 10% fetal calf serum. 100 units/ml penicillin, and 100 μg/ml streptomycin. Normal (WI-38) and simian virus 40 (SV40)-transformed (VA-13) human fibroblasts were grown in Dulbecco's modified Eagle's medium supplemented with 10% fetal calf serum, 100 units/ml of penicillin and 100 μg/ml of streptomycin. All cells were maintained at 37° C. in a humidified incubator with an atmosphere of 5% CO2. A whole cell extract was prepared in accordance with An et al. (An, B. et al. Cell Death Differ, 1998, 5:1062-75). Briefly, cells were harvested, washed with PBS twice, and homogenized in a lysis buffer [50 mM Tris-HCl (pH 8.0), 5 mM EDTA, 150 mM NaCl, 0.5% NP-40, 0.5 mM phenylmethylsulfonyl fluoride, and 0.5 mM dithiothreitol] for 30 min at 4° C. Afterwards, lysates were centrifuged at 12,000×g for 15 min at 4° C., and the supernatants were collected as whole cell extracts. Equal amounts of protein extract (60 μg) were resolved by SDS-polyacrylamide gel electrophoresis and transferred to a nitrocellulose membrane using a Semi-Dry Transfer system (BIO-RAD, Hercules, Calif.). Jurkat T, LNCaP, or DU-145 cells were treated with various concentrations of synthetic or natural tea polyphenols for indicted hours. The enhanced chemiluminescence (ECL) Western blot analysis was then performed using specific antibodies to the proteins of interest (p^27kip, IκB-α, PARP, Bax or actin). The ratio of p27 or IκB-α to the corresponding actin was determined by scanning intensities of the protein bands.
To investigate whether (−)-EGCG-amide and (+)-EGCG-amide inhibit intact tumor cell proteasome activity, human prostate cancer LNCaP cells were treated with 25 μM of (−)- or (+)-EGCG-amide for up to 9 hours, followed by measurement of p27, IκB-α and Bax, three well-known proteasome target proteins (Pagano, M. et al. Science, 1995, 269:682-685; An, B. et al. Cell Death Differ, 1998, 5:1062-75; Sun, J. et al. Cancer Res, 2001, 61:1280-1284; Palombella, V. J. et al. Cell, 1994, 78:773-785; Thompson, J. E. et al. Cell, 1995, 80:573-582; Perkins, N. D. Trends Biochem Sci, 2000, 25:434-440; Chang, Y. C. et al. Cell Growth Differ, 1998, 9:79-84; Li, B. and Dou, Q. P. Proc Natl Acad Sci USA, 2000, 97:3850-3855; Nam, S. et al. Cancer Epidemiol Biomarkers Prey, 2001, 10:1083-1088). In this experiment (−)-EGCG and (+)-EGCG were used as positive controls.
Having determined that the synthetic GTP-1 to −5 analogs are able to inhibit the proteasomal chymotrypsin-like activity in vitro (FIG. 8), these compounds were investigated for their potency in inhibiting intact tumor cellular proteasome activity. To do so, human prostate cancer LNCaP cells were treated with one of these compounds for the indicated hours, followed by measuring levels of proteasome target proteins, p27, IκB-α, and Bax, and polyubiquitinated proteins.

VA-13 cells = experiment: Western blot of p27 in SV40-transformed VA-13 fibroblasts; type: cell-based, human; settings: 25 μM, 12 hours
Procedure: as §2
Normal WI-38 and SV40-transformed VA-13 cell lines were treated with 25 μM of (−)-EGCG, (−)-EGCG-amide, (+)-EGCG, (+)-EGCG-amide, or GTP-1 for either 12 hours or 36 hours.

[5] = molecular target: T2, 20S eukaryotic proteasome (Oryctolagus cuniculus, UniProt G1T4Q9); experiment: Inhibition of chymotrypsin-like activity of purified eukaryotic 20S proteasome (Suc-Leu-Leu-Val-Tyr-AMC); type: biochemical, rabbit
T2 construct: purchased BOSTON BIOCHEM (Cambridge, Mass.)
T2 sequence (G1T4Q9 1-263): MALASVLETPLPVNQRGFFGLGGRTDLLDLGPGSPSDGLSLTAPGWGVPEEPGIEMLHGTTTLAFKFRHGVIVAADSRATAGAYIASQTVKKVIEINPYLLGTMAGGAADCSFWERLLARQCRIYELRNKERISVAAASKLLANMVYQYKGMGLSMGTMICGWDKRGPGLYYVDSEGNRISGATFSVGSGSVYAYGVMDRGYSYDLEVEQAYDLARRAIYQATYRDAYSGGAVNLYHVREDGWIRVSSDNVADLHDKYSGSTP
Procedure: Materials. Highly purified tea polyphenols (−)-EGCG (>95%), (−)-GCG (>98%), (−)-ECG (>98%), (−)-CG (>98%), fetal calf serum, propidium iodide, 3-[4,5-dimethylthiazol-2-yl]-2,5-diphenyltetrazolium bromide (MTT), RNase A, and DMSO were purchased from Sigma (St. Louis, Mo.). (+)-EGCG, benzyl-protected-(+)-EGCG, (+)-GCG, (−)-EGCG-amide, and (+)-EGCG-amide were prepared by enantioselective synthesis (see below). Purified 20S eukaryotic proteasome from rabbit was purchased from BOSTON BIOCHEM (Cambridge, Mass.). Purified 20S prokaryotic proteasome (Methanosarcina thermophile, Recombinant, E. coli) was purchased from CALBIOCHEM (La Jolla, Calif.). Fluorogenic peptide substrates Suc-Leu-Leu-Val-Tyr-AMC (for the proteasomal chymotrypsin-like activity) was obtained from Calbiochem (La Jolla, Calif.). RPMI 1640 medium, Dulbecco's modified Eagle's medium, MEM non-essential amino acids solution, MEM-sodium pyruvate solution, penicillin, and streptomycin were from INVITROGEN (Carlsbad, Calif.). Monoclonal antibody to p27^Kip was purchased from PHARMINGEN (San Diego, Calif.); polyclonal antibodies to IκB-α, Bax and actin, and monoclonal antibody to ubiquitin were from SANTA CRUZ Biotechnology Inc. (Santa Cruz, Calif.).
as §1
Purified prokaryotic (0.5 μg) or eukaryotic (0.02 μg) 20S proteasome was incubated with 20 μM fluorogenic peptide substrate, Suc-Leu-Leu-Val-Tyr-AMC for 30 minutes at 37° C. in 100 μl of assay buffer ([…] Tris-HCl, pH 7.5), with or without a natural or synthetic tea polyphenol. After incubation, production of hydrolyzed AMC groups was measured using a multi-well plate VERSAFLUOR Fluorometer with an excitation filter of 380 nm and an emission filter of 460 nm.
(−)-EGCG at 1 μM was incubated with eukaryotic 20S proteasome (0.02 μg) and suc-LLVY-AMC (20 μM) for the times indicated in FIG. 7. The chymotrypsin activity was measured and graphed in FIG. 7. Values are means from 4 independent experiments, and error bars represent standard deviations.
In the second experiment (−)-EGCG at 1 μM was pre-incubated with (SDS-pre) or without 0.01% SDS (no SDS) for 1 hour, followed by addition of eukaryotic 20S proteasome (0.02 μg) and suc-LLVY-AMC (20 μM). “SDS-post” represents the same treatment as “no SDS” except 0.01% SDS was added 1 hour after addition of the proteasome, (−)-EGCG and the substrate. AMC liberation was measured by fluorescence at each indicated time point and the percentage of chymotrypsin activity was determined. Values are means from 4 independent experiments, and error bars represent standard deviations.

SMILES	IC50 (purified 20S proteasome [2])	colony formation (LNCaP transformation capability) (LNCaP cells [3])	levels of polyubiquitinated proteins (LNCaP cells [4])	levels of proteasome target proteins (p27, IκB-α) (LNCaP cells [4])	also measured
CCCC[C@@H](C=O)NC(=O)[C@H](CC(C)C)NC(=O)[C@H](CC(C)C)NC(C)=O [LLnL, reference compound] (Ac-Leu-Leu-[Nle]-aldehyde)	–	–	–	–	inhibition of proteasomal activity (purified 20S proteasome [1]; 1 μM): 20%; inhibition of proteasomal activity (purified 20S proteasome [1]; 10 μM): 70%
O=C(N[C@H]1CCCC[C@H]1NC(=O)c1cc(O)c(O)c(O)c1)c1cc(O)c(O)c(O)c1 [GTP-2]	2.5 µM	completely blocked LNCaP transformation capability	–	–	–
O=C(O[C@H]1CCCC[C@H]1OC(=O)c1cc(O)c(O)c(O)c1)c1cc(O)c(O)c(O)c1 [GTP-1]	1.9 µM	completely blocked LNCaP transformation capability	caused accumulation of polyubiquitinated proteins	increased levels of p27, IκB-α, and Bax proteins at as early as 3 hours	levels of p27 protein (VA-13 cells): significantly increased levels of p27 protein
O=c1c(-c2ccc(O)cc2)coc2cc(O)cc(O)c12 [genistein]	–	–	–	–	IC50 ([5]; chymotrypsin-like activity of purified 20S proteasome): 26 µM
O=C(O[C@@H]1Cc2c(O)cc(O)cc2O[C@@H]1c1ccc(O)c(O)c1)c1cc(O)c(O)c(O)c1 [(−)-ECG]	–	–	–	–	IC50 ([5]; chymotrypsin-like activity, rabbit 20S proteasome): 0.71 µM
O=C(N[C@H]1CCCC[C@@H]1NC(=O)c1cc(O)c(O)c(O)c1)c1cc(O)c(O)c(O)c1 [GTP-3]	1.5 µM	completely blocked LNCaP transformation capability	greatly increased levels of p27, IκB-α, and ubiquitinated proteins	greatly increased levels of p27, IκB-α, and ubiquitinated proteins	levels of Bax protein (LNCaP cells [4]): transiently increased levels of Bax protein
